{"source": "paper PMC12266345", "about": "“Discovery and characterization of selective lipase-inhibiting polyheterocyclic derivatives: a combined in silico and in vitro study” (Turkish Journal of Biology, 2025)", "origin": "cited, not measured here", "target": "lipase", "key": {"[1]": {"conditions": "ref Ruiz et al., 2006, Benarous et al., 2015"}}, "note": "Like-named read-outs stand apart in the source and are kept apart here.", "data": [{"smiles": "O=C(N[C@H](CO)[C@H](O)c1ccc([N+](=O)[O-])cc1)C(Cl)Cl", "note": "[Chloramphenicol]", "values": [{"measurement": "IC50 lipase inhibition", "setting": "ref Liu et al., 2006", "value": "220 ± 0.003", "unit": "µg/mL"}]}, {"smiles": "O.Oc1cc(O)c2c(c1)O[C@H](c1ccc(O)c(O)c1)[C@@H](O)C2", "note": "[catechin]", "values": [{"measurement": "IC50 lipase inhibition", "setting": "[1]", "value": 183, "unit": "µg/mL"}]}, {"smiles": "Cc1nc(-c2ccc(OCC(C)C)c(C#N)c2)sc1C(=O)O", "note": "[febuxostat]", "values": [{"measurement": "IC50 lipase inhibition", "setting": "ref Serseg and Benarous, 2018", "value": 660, "unit": "µg/mL"}]}, {"smiles": "Nc1nc(=O)c2nc(CNc3ccc(C(=O)N[C@@H](CCC(=O)O)C(=O)O)cc3)cnc2[nH]1", "note": "[folic acid]", "values": [{"measurement": "IC50 lipase inhibition", "setting": "ref Serseg and Benarous, 2018", "value": 640, "unit": "µg/mL"}]}, {"smiles": "COc1ccc2c3c([nH]c2c1)C(C)=NCC3", "note": "[harmaline]", "values": [{"measurement": "IC50 lipase inhibition", "setting": "[1]", "value": 830, "unit": "µg/mL"}]}, {"smiles": "O=c1cc(O)cc(/C=C/c2ccc(O)c(O)c2)o1", "note": "[hispidin]", "values": [{"measurement": "IC50 lipase inhibition", "setting": "[1]", "value": 179, "unit": "µg/mL"}]}, {"smiles": "CCOC(=O)N1CCC(=C2c3ccc(Cl)cc3CCc3cccnc32)CC1", "note": "[loratadine]", "values": [{"measurement": "IC50 lipase inhibition", "setting": "ref Benarous et al., 2018", "value": "440 ± 0.02", "unit": "µg/mL"}]}, {"smiles": "CN(C)[C@@H]1C(O)=C(C(N)=O)C(=O)[C@@]2(O)C(O)=C3C(=O)c4c(O)cccc4[C@@](C)(O)[C@H]3C[C@@H]12", "note": "[tetracycline]", "values": [{"measurement": "IC50 lipase inhibition", "setting": "ref Liu et al., 2006", "value": "470 ± 0.005", "unit": "µg/mL"}]}]}
